Measurements reported in US20090247559A1 (Exelixis, Inc., priority 2007, published 2009).
Like-named read-outs stand apart in the source and are kept apart here.

Columns and labels:
[1] = target: CK2 (Homo sapiens, UniProt P68400); assay: CK2 inhibition, biochemical chemiluminescence holoenzyme assay (Kinase Glo, IC50 determination); conditions: Table 1 activity class; symbol given only if active; read-out: CK2 IC50 (Activity C)
Method in brief: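 Holoenzyme CK2 assay; compounds pre-incubated with substrate and enzyme, then reacted 150 min at 24-27° C. Remaining ATP measured as luminescence with Kinase Glo, and IC50 derived from the signal.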

[2] = target: PIM (PIM-1, PIM-2, and/or PIM-3); assay: PIM-1, PIM-2 and PIM-3 inhibition, biochemical chemiluminescence assays (Kinase Glo, IC50 determination); conditions: Table 1 activity class; PIM refers to PIM-1, PIM-2, and/or PIM-3; read-out: PIM IC50 (Activity B)
[3] = target: CDC7 (Homo sapiens, UniProt O00311); assay: CDC7 inhibition, biochemical chemiluminescence assay (Kinase Glo, IC50 determination)
CDC7, sequence (O00311 whole entry): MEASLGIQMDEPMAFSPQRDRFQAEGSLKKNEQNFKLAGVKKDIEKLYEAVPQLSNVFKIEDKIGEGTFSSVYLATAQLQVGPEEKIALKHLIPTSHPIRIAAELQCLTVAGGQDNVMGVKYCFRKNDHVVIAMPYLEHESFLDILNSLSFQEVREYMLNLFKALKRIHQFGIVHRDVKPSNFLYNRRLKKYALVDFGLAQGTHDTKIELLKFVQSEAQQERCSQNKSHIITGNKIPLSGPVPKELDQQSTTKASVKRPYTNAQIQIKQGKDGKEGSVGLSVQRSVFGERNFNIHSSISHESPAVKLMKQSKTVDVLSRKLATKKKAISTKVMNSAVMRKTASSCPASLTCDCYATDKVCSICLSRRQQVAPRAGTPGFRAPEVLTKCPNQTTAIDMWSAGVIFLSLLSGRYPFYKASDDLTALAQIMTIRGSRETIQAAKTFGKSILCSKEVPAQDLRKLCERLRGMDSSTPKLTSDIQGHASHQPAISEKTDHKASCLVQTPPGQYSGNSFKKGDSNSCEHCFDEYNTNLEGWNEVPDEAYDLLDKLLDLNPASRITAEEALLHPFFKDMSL
CDC7, sequence (Q9UBU7 whole entry partner): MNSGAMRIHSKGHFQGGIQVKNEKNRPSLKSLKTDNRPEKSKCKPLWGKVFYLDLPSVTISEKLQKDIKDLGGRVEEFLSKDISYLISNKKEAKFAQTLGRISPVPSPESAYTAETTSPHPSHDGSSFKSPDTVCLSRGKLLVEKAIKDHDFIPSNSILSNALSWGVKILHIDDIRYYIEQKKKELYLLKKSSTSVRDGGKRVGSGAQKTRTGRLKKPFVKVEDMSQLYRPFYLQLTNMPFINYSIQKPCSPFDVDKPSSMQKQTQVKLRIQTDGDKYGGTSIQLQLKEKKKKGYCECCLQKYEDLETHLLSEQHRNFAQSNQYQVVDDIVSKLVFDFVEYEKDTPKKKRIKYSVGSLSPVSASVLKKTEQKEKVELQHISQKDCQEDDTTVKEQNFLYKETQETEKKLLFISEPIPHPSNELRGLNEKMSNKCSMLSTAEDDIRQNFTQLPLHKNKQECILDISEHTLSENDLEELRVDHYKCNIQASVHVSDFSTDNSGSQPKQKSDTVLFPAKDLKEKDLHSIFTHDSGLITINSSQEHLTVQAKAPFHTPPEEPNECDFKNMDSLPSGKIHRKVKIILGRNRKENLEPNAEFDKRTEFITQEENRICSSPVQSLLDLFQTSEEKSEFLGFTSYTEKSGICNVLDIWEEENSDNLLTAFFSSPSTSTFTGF
Method in brief: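 CDC7 enzyme preincubated with compound 10 min at ambient temperature, then ATP mix in Tris Base added; reaction 90 min at 24-27 °C. Remaining ATP quantified by Kinase Glo luminescence to give IC50.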

[4] = Table 1 activity class, symbol given only if active, read-out: CDC7 IC50 (Activity A)
[5] = compounds in Table 1, read-out: CDC7 IC50 value

CK2, sequence (P68400 whole entry): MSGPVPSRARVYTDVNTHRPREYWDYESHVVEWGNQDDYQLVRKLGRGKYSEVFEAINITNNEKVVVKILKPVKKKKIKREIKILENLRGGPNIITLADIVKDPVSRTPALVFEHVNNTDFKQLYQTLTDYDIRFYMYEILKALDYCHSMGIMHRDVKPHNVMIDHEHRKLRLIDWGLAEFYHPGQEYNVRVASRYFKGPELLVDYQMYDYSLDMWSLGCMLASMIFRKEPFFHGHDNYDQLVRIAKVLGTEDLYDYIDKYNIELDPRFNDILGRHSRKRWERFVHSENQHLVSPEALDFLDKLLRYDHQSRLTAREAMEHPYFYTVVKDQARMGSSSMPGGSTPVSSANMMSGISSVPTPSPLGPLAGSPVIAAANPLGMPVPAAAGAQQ
CK2, sequence (P67870 whole entry partner): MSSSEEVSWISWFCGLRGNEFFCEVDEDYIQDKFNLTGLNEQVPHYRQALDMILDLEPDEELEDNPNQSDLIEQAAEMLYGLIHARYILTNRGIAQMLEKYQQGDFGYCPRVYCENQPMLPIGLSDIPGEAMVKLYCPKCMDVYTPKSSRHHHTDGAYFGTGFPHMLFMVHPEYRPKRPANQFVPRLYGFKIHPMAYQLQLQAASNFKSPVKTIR

IC50 [1] [µM] | IC50 [2] [µM] | IC50 [3, 4] [µM] | IC50 [3, 5] [µM] | SMILES
< 10 | < 10 | < 10 | < 0.1 | CC(c1nc2c(oc3ccc(Br)cc32)c(=O)[nH]1)N1CC[C@H](O)C1 (stereo partly drawn) [Compound 508, 8-bromo-2-{1-[(3S)-3-hydroxypyrrolidin-1-yl]ethyl}[1]benzofuro[3,2-d]pyrimidin-4(3H)-one]
< 10 | < 10 | < 10 | < 0.1 | O=C(O)C1(O)CCN(Cc2nc3c(oc4ccc(Br)cc43)c(=O)[nH]2)C1 (stereo not shown) [Compound 368, 1-[(8-bromo-4-oxo-3,4-dihydro[1]benzofuro[3,2-d]pyrimidin-2-yl)methyl]-3-hydroxypyrrolidine-3-carboxylic acid]
< 10 | < 10 | < 10 |  | O=C(Nc1ccc(-c2nc3c(oc4ccc(Br)cc43)c(=O)[nH]2)c(Cl)c1)c1ccno1 [Compound 324, N-[4-(8-bromo-4-oxo-3,4-dihydro[1]benzofuro[3,2-d]pyrimidin-2-yl)-3-chlorophenyl]isoxazole-5-carboxamide]
< 10 | < 10 | < 10 |  | Cc1ccc2oc3c(=O)[nH]c(CN4CC[C@H](O)C4)nc3c2c1N [Compound 440, 9-amino-2-{[(3S)-3-hydroxypyrrolidin-1-yl]methyl}-8-methyl[1]benzofuro[3,2-d]pyrimidin-4(3H)-one]
< 10 | < 10 | < 10 | < 0.1 | O=c1[nH]c(CN2CC[C@H](F)C2)nc2c1oc1ccc(Br)cc12 [Compound 308, 8-bromo-2-{[(3S)-3-fluoropyrrolidin-1-yl]methyl}[1]benzofuro[3,2-d]pyrimidin-4(3H)-one]
< 10 | < 10 | < 10 | < 0.1 | NC1(c2nc3c(oc4ccc(Br)cc43)c(=O)[nH]2)CCC1 [Compound 544, 2-(1-aminocyclobutyl)-8-bromo[1]benzofuro[3,2-d]pyrimidin-4(3H)-one]
< 10 | < 10 | < 10 | < 0.1 | O=c1[nH]c(C2CCCN2)nc2c1oc1ccc(Br)cc12 (stereo not shown) [Compound 169, 8-bromo-2-pyrrolidin-2-yl[1]benzofuro[3,2-d]pyrimidin-4(3H)-one]
< 10 | < 10 | < 10 |  | CN(C)Cc1cccc(-c2nc3c(oc4ccc(Br)cc43)c(=O)[nH]2)c1 [Compound 353, 8-Bromo-2-{3-[(dimethylamino)methyl]phenyl}[1]benzofuro[3,2-d]pyrimidin-4(3H)-one]
< 10 | < 10 | < 10 |  | C[C@H](O)c1nc2c(oc3ccc(Br)cc32)c(=O)[nH]1 [Compound 497, 8-bromo-2-[(1S)-1-hydroxyethyl][1]benzofuro[3,2-d]pyrimidin-4(3H)-one]
< 10 | < 10 | < 10 | < 0.1 | O=c1[nH]c([C@@H]2C[C@H](O)CN2)nc2c1oc1ccc(Br)cc12 [Compound 511, 8-bromo-2-[(2S,4S)-4-hydroxypyrrolidin-2-yl][1]benzofuro[3,2-d]pyrimidin-4(3H)-one]
< 10 | < 10 | < 10 |  | O=c1[nH]c(-c2ccc(NCCC3CCCNC3)cc2Cl)nc2c1oc1ccc(Br)cc12 (stereo not shown) [Compound 155, 8-bromo-2-{2-chloro-4-[(2-piperidin-3-ylethyl)amino]phenyl}[1]benzofuro[3,2-d]pyrimidin-4(3H)-one]
< 10 | < 10 | < 10 |  | NCc1cccc(-c2nc3c(oc4ccc(Br)cc43)c(=O)[nH]2)c1 [Compound 302, 2-[3-(Aminomethyl)phenyl]-8-bromo[1]benzofuro[3,2-d]pyrimidin-4(3H)-one]
< 10 | < 10 | < 10 | < 0.1 | CCC1(O)CCN(Cc2nc3c(oc4ccc(Br)cc43)c(=O)[nH]2)C1 (stereo not shown) [Compound 407, 8-bromo-2-[(3-ethyl-3-hydroxypyrrolidin-1-yl)methyl][1]benzofuro[3,2-d]pyrimidin-4(3H)-one]
< 10 | < 10 | < 10 | < 0.1 | O=c1[nH]c(CN2C[C@H](O)[C@@H](O)C2)nc2c1oc1ccc(Br)cc12 [Compound 333, 8-bromo-2-(((3 S,4S)-3,4-dihydroxypyrrolidin-1-yl)methyl)benzofuro[3,2-d]pyrimidin-4(3H)-one]
< 10 | < 10 | < 10 |  | CCc1ccc2oc3c(=O)[nH]c(CN4CC[C@H](O)C4)nc3c2c1 [Compound 460, 8-ethyl-2-{[(3S)-3-hydroxypyrrolidin-1-yl]methyl}[1]benzofuro[3,2-d]pyrimidin-4(3H)-one]
< 10 | < 10 | < 10 | < 0.1 | NC1CCCC(c2nc3c(oc4ccc(Br)cc43)c(=O)[nH]2)C1 (stereo not shown) [Compound 380, 2-(3-aminocyclohexyl)-8-bromo[1]benzofuro[3,2-d]pyrimidin-4(3H)-one]
< 10 | < 10 | < 10 | < 0.1 | CN1CC(c2nc3c(oc4ccc(Br)cc43)c(=O)[nH]2)C1 [Compound 221, 8-Bromo-2-(1-methylazetidin-3-yl)[1]benzofuro[3,2-d]pyrimidin-4(3H)-one]
< 10 | < 10 | < 10 | < 0.1 | O=c1[nH]c(CN2CC[C@@H](F)C2)nc2c1oc1ccc(Br)cc12 [Compound 307, 8-bromo-2-{[(3R)-3-fluoropyrrolidin-1-yl]methyl}[1]benzofuro[3,2-d]pyrimidin-4(3H)-one]
< 10 | < 10 | < 10 |  | O=c1[nH]c(-c2ccc([N+](=O)[O-])cc2Cl)nc2c1oc1ccc(Br)cc12 [Compound 33, 8-Bromo-2-(2-chloro-4-nitrophenyl)[1]benzofuro[3,2-d]pyrimidin-4(3H)-one]
< 10 | < 10 | < 10 |  | O=c1[nH]c(-c2ccc(Br)cc2Cl)nc2c1oc1ccc(Br)cc12 [Compound 116, 8-bromo-2-(4-bromo-2-chlorophenyl)[1]benzofuro[3,2-d]pyrimidin-4(3H)-one]
< 10 | < 10 | < 10 | < 0.1 | N[C@H](c1ccccc1)c1nc2c(oc3ccc(Br)cc32)c(=O)[nH]1 [Compound 490, 2-[(R)-amino(phenyl)methyl]-8-bromo[1]benzofuro[3,2-d]pyrimidin-4(3H)-one]
< 10 | < 10 | < 10 | < 0.1 | CC[C@H](C)NCc1nc2c(oc3ccc(Br)cc32)c(=O)[nH]1 [Compound 522, 8-bromo-2-({[(1S)-1-methylpropyl]amino}methyl)[1]benzofuro[3,2-d]pyrimidin-4(3H)-one]
< 10 | < 10 | < 10 |  | CNC1CCN(Cc2nc3c(oc4ccc(Br)cc43)c(=O)[nH]2)C1 (stereo not shown) [Compound 118, 8-bromo-2-{[3-(methylamino)pyrrolidin-1-yl]methyl}[1]benzofuro[3,2-d]pyrimidin-4(3H)-one]
< 10 | < 10 | < 10 | < 0.1 | CN1CCCC1c1nc2c(oc3ccc(Br)cc32)c(=O)[nH]1 (stereo not shown) [Compound 273, 8-Bromo-2-(1-methylpyrrolidin-2-yl)[1]benzofuro[3,2-d]pyrimidin-4(3H)-one]
< 10 | < 10 | < 10 |  | O=C(CCN1CCOCC1)Nc1ccc(-c2nc3c(oc4ccc(Br)cc43)c(=O)[nH]2)c(Cl)c1 [Compound 248, N-[4-(8-bromo-4-oxo-3,4-dihydro[1]benzofuro[3,2-d]pyrimidin-2-yl)-3-chlorophenyl]-3-morpholin-4-ylpropanamide]
< 10 | < 10 | < 10 | < 0.1 | NCCNc1nc2c(oc3ccc(Br)cc32)c(=O)[nH]1 [Compound 231, 2-[(2-aminoethyl)amino]-8-bromo[1]benzofuro[3,2-d]pyrimidin-4(3H)-one]
< 10 | < 10 | < 10 |  | O=C(Nc1ccc(-c2nc3c(oc4ccc(Br)cc43)c(=O)[nH]2)c(Cl)c1)c1ccncc1 [Compound 143, N-[4-(8-bromo-4-oxo-3,4-dihydro[1]benzofuro[3,2-d]pyrimidin-2-yl)-3-chlorophenyl]pyridine-4-carboxamide]
< 10 | < 10 | < 10 |  | O=C(O)c1ccc(C(=O)Nc2ccc(-c3nc4c(oc5ccc(Br)cc54)c(=O)[nH]3)c(Cl)c2)nc1 [Compound 347, 6-({[4-(8-bromo-4-oxo-3,4-dihydro[1]benzofuro[3,2-d]pyrimidin-2-yl)-3-chlorophenyl]amino}carbonyl)pyridine-3-carboxylic acid]
< 10 | < 10 | < 10 |  | O=c1[nH]c(-c2ccccc2-n2ccnc2)nc2c1oc1ccc(Br)cc12 [Compound 48, 8-bromo-2-[2-(1H-imidazol-1-yl)phenyl][1]benzofuro[3,2-d]pyrimidin-4(3H)-one]

SMILES | IC50 [1] [µM] | IC50 [2] [µM] | IC50 [3, 4] [µM] | IC50 [3, 5] [µM]
O=c1c2oc3ccc(Br)cc3c2nc2n1CN1CCC[C@H]21 [Compound 452, (13bR)-11-bromo-1,2,3,13b-tetrahydro-7H-[1]benzofuro[3,2-d]pyrrolo[1′,2′:3,4]imidazo[1,5-a]pyrimidin-7-one] | < 10 | < 10 | < 10 | < 0.1
